Measured values from PubChem BioAssay (NCI).
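Step 1: Grow cells in 96-well plates. Step 2: Expose to compound for 48 hours at 5 concentrations. Step 3: Interpolate endpoints linearly; if unreached, use highest concentration. At the GI50, growth is halved. TGI: concentration producing complete growth inhibition.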

Assays:
Experiment in all cases: DTP human tumour cell line panel, 48 h
786-0 renal = system: 786-0 renal
A498 renal = system: A498 renal
A549 NSCLC = system: A549 NSCLC
ACHN renal = system: ACHN renal
BT-549 breast = system: BT-549 breast
CAKI-1 renal = system: CAKI-1 renal
CCRF-CEM leukemia = system: CCRF-CEM leukemia
COLO 205 colon = system: COLO 205 colon
DU-145 prostate = system: DU-145 prostate
EKVX NSCLC = system: EKVX NSCLC
HCC-2998 colon = system: HCC-2998 colon
HCT-116 colon = system: HCT-116 colon
HCT-15 colon = system: HCT-15 colon
HL-60(TB) leukemia = system: HL-60(TB) leukemia
HOP-62 NSCLC = system: HOP-62 NSCLC
HOP-92 NSCLC = system: HOP-92 NSCLC
HS 578T breast = system: HS 578T breast
HT29 colon = system: HT29 colon
IGROV1 ovarian = system: IGROV1 ovarian
K-562 leukemia = system: K-562 leukemia
KM12 colon = system: KM12 colon
LOX IMVI melanoma = system: LOX IMVI melanoma
M14 melanoma = system: M14 melanoma
MALME-3M melanoma = system: MALME-3M melanoma
MCF7 breast = system: MCF7 breast
MDA-MB-231 breast = system: MDA-MB-231 breast
MDA-MB-435 = system: MDA-MB-435
MOLT-4 leukemia = system: MOLT-4 leukemia
NCI-H226 lung = system: NCI-H226 lung
NCI-H23 lung = system: NCI-H23 lung
NCI-H460 lung = system: NCI-H460 lung
NCI-H522 lung = system: NCI-H522 lung
NCI/ADR-RES ovarian = system: NCI/ADR-RES ovarian
OVCAR-3 ovarian = system: OVCAR-3 ovarian
OVCAR-4 ovarian = system: OVCAR-4 ovarian
OVCAR-5 ovarian = system: OVCAR-5 ovarian
OVCAR-8 ovarian = system: OVCAR-8 ovarian
PC-3 prostate = system: PC-3 prostate
RPMI-8226 leukemia = system: RPMI-8226 leukemia
RXF 393 renal = system: RXF 393 renal
SF-268 CNS = system: SF-268 CNS
SF-295 CNS = system: SF-295 CNS
SF-539 CNS = system: SF-539 CNS
SK-MEL-2 melanoma = system: SK-MEL-2 melanoma
SK-MEL-28 melanoma = system: SK-MEL-28 melanoma
SK-MEL-5 melanoma = system: SK-MEL-5 melanoma
SK-OV-3 ovarian = system: SK-OV-3 ovarian
SN12C renal = system: SN12C renal
SNB-19 CNS = system: SNB-19 CNS
SNB-75 CNS = system: SNB-75 CNS
SR leukemia = system: SR leukemia
SW-620 colon = system: SW-620 colon
T-47D breast = system: T-47D breast
TK-10 renal = system: TK-10 renal
U251 CNS = system: U251 CNS
UACC-257 melanoma = system: UACC-257 melanoma
UACC-62 melanoma = system: UACC-62 melanoma
UO-31 renal = system: UO-31 renal

O=C(Nc1ccccc1C(=O)N/N=C(\c1ccccc1)c1ccccn1)c1ccccc1
GI50 (786-0 renal): 399 nM
TGI (786-0 renal): > 100000 nM
GI50 (A498 renal): 2950 nM
TGI (A498 renal): > 100000 nM
GI50 (A549 NSCLC): 987 nM
TGI (A549 NSCLC): > 100000 nM
GI50 (ACHN renal): 418 nM
TGI (ACHN renal): > 100000 nM
GI50 (BT-549 breast): 2180 nM
TGI (BT-549 breast): > 100000 nM
GI50 (CAKI-1 renal): 397 nM
TGI (CAKI-1 renal): > 100000 nM
GI50 (CCRF-CEM leukemia): 351 nM
TGI (CCRF-CEM leukemia): > 100000 nM
GI50 (COLO 205 colon): 427 nM
TGI (COLO 205 colon): > 100000 nM
GI50 (DU-145 prostate): 999 nM
TGI (DU-145 prostate): > 100000 nM
GI50 (EKVX NSCLC): 339 nM
TGI (EKVX NSCLC): > 100000 nM
GI50 (HCC-2998 colon): 537 nM
TGI (HCC-2998 colon): > 100000 nM
GI50 (HCT-116 colon): 405 nM
TGI (HCT-116 colon): > 100000 nM
GI50 (HCT-15 colon): 112 nM
TGI (HCT-15 colon): > 100000 nM
GI50 (HL-60(TB) leukemia): 606 nM
TGI (HL-60(TB) leukemia): > 22000 nM
GI50 (HOP-62 NSCLC): 396 nM
TGI (HOP-62 NSCLC): > 100000 nM
GI50 (HOP-92 NSCLC): 552 nM
TGI (HOP-92 NSCLC): 47800 nM
GI50 (HS 578T breast): > 100000 nM
TGI (HS 578T breast): > 100000 nM
GI50 (HT29 colon): 797 nM
TGI (HT29 colon): > 100000 nM
GI50 (IGROV1 ovarian): 502 nM
TGI (IGROV1 ovarian): > 100000 nM
GI50 (K-562 leukemia): 1450 nM
TGI (K-562 leukemia): > 100000 nM
GI50 (KM12 colon): 581 nM
TGI (KM12 colon): > 100000 nM
GI50 (LOX IMVI melanoma): 505 nM
TGI (LOX IMVI melanoma): > 100000 nM
GI50 (M14 melanoma): 457 nM
TGI (M14 melanoma): 4630 nM
GI50 (MALME-3M melanoma): 1750 nM
TGI (MALME-3M melanoma): > 100000 nM
GI50 (MCF7 breast): 556 nM
TGI (MCF7 breast): > 100000 nM
GI50 (MDA-MB-231 breast): 478 nM
TGI (MDA-MB-231 breast): > 100000 nM
GI50 (MDA-MB-435): 1390 nM
TGI (MDA-MB-435): > 100000 nM
GI50 (MOLT-4 leukemia): 460 nM
TGI (MOLT-4 leukemia): > 100000 nM
GI50 (NCI-H226 lung): 828 nM
TGI (NCI-H226 lung): > 100000 nM
GI50 (NCI-H23 lung): 1870 nM
TGI (NCI-H23 lung): > 100000 nM
GI50 (NCI-H460 lung): 402 nM
TGI (NCI-H460 lung): > 100000 nM
GI50 (NCI-H522 lung): 1270 nM
TGI (NCI-H522 lung): > 100000 nM
GI50 (NCI/ADR-RES ovarian): 276 nM
TGI (NCI/ADR-RES ovarian): > 100000 nM
GI50 (OVCAR-3 ovarian): 346 nM
TGI (OVCAR-3 ovarian): > 100000 nM
GI50 (OVCAR-4 ovarian): 330 nM
TGI (OVCAR-4 ovarian): > 100000 nM
GI50 (OVCAR-5 ovarian): 933 nM
TGI (OVCAR-5 ovarian): > 100000 nM
GI50 (OVCAR-8 ovarian): 583 nM
TGI (OVCAR-8 ovarian): > 100000 nM
GI50 (PC-3 prostate): 711 nM
TGI (PC-3 prostate): > 100000 nM
GI50 (RPMI-8226 leukemia): 823 nM
TGI (RPMI-8226 leukemia): > 100000 nM
GI50 (RXF 393 renal): 1930 nM
TGI (RXF 393 renal): > 82400 nM
GI50 (SF-268 CNS): 609 nM
TGI (SF-268 CNS): > 100000 nM
GI50 (SF-295 CNS): 427 nM
TGI (SF-295 CNS): > 67000 nM
GI50 (SF-539 CNS): 621 nM
TGI (SF-539 CNS): > 100000 nM
GI50 (SK-MEL-2 melanoma): 4850 nM
TGI (SK-MEL-2 melanoma): > 100000 nM
GI50 (SK-MEL-28 melanoma): 1230 nM
TGI (SK-MEL-28 melanoma): > 100000 nM
GI50 (SK-MEL-5 melanoma): 560 nM
TGI (SK-MEL-5 melanoma): 2460 nM
GI50 (SK-OV-3 ovarian): 504 nM
TGI (SK-OV-3 ovarian): > 100000 nM
GI50 (SN12C renal): 623 nM
TGI (SN12C renal): > 100000 nM
GI50 (SNB-19 CNS): 912 nM
TGI (SNB-19 CNS): > 100000 nM
GI50 (SNB-75 CNS): 1070 nM
TGI (SNB-75 CNS): > 100000 nM
GI50 (SR leukemia): 507 nM
TGI (SR leukemia): > 100000 nM
GI50 (SW-620 colon): 723 nM
TGI (SW-620 colon): > 100000 nM
GI50 (T-47D breast): 666 nM
TGI (T-47D breast): > 100000 nM
GI50 (TK-10 renal): 584 nM
TGI (TK-10 renal): > 100000 nM
GI50 (U251 CNS): 657 nM
TGI (U251 CNS): > 100000 nM
GI50 (UACC-257 melanoma): 2580 nM
TGI (UACC-257 melanoma): > 100000 nM
GI50 (UACC-62 melanoma): 496 nM
GI50 (UO-31 renal): 428 nM
TGI (UO-31 renal): > 25500 nM
